Assay results from US8980848B2, “Flavonoid dimers and their use” (The Hong Kong Polytechnic University, priority 2010, dated 2015).

How the values were obtained:
[1] = Tumor cell line cytotoxicity of flavonoid dimers, LCC6MDR; format: cell-based, human; conditions: human, LCC6MDR cells, IC50 of compound alone
Summary of the method: (§1)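 LCC6, LCC6MDR and L929 cells seeded at 1×10^4 cells/well and exposed to graded doses of flavonoid dimers. Incubation 72 hrs at 37° C., 5% CO2. Read-out: % survivors.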

[2] = Tumor cell line cytotoxicity of flavonoid dimers, LCC6; format: cell-based, human; conditions: human, LCC6 cells, IC50 of compound alone
Summary of the method: as §1

[3] = Cytotoxicity of flavonoid dimers, L929 mouse fibroblast; format: cell-based; conditions: mouse, L929 fibroblast cells, IC50 of compound alone, 72 hrs, mouse fibroblast
Summary of the method: as §1

[4] = Cytotoxicity over LCC6, LCC6MDR and L929 cell lines; format: cell-based, human, mouse; conditions: human, mouse, LCC6MDR and L929 cell lines; cancer lines LCC6, LCC6MDR and/or L929
[5] = tested on: LCC6 cells; assay: Doxorubicin accumulation in LCC6 cells; format: cell-based, human; conditions: 1 μM
From the text: Doxorubycin accumulation. […] […].

[6] = tested on: LCC6 cells; assay: Doxorubicin influx in LCC6 cells; format: cell-based, human; conditions: after 75 min
Experimental: (§2) Influx and Efflux Studies. […] 0.15% of DMSO acted as a negative control. The cells were harvested after 0, 15, 30, 45, 75 min for determining the intracellular Doxorubycin concentration as described previously. […] The cells were then washed and further incubated in the presence or absence of compound 18 (1 or 3 μM). At 0, 15, 30, 60, 90, 120, 150 and 180 min, the cells were harvested for measuring the intracellular Doxorubycin concentration.
(§3) Effect of Compound 18 on Doxorubicin Influx and Efflux of MDA435/LCC6MDR Cells. Experiments were performed to determine whether the increased accumulation of doxorubicin in LCC6MDR cells caused by 18 is due to potentiation of doxorubicin influx or inhibition of efflux.

[7] = tested on: LCC6MDR cells; assay: Doxorubicin influx in LCC6MDR cells; format: cell-based, human; conditions: for Intracellular doxorubicin level, influx: LCC6MDR, after 75 min
Experimental: as §2, §3

[8] = tested on: LCC6 cells; assay: Doxorubicin efflux in LCC6 cells; format: cell-based, human; conditions: after 3 hrs
Experimental: as §2
In the efflux experiments, both LCC6 and LCC6MDR were first pre-loaded with doxorubicin for 2 hrs, washed and the remaining doxorubicin was measured after 0, 15, 30, 60, 90, 120, 150 and 180 min. […] Thus efflux rate of LCC6MDR is higher than LCC6. At 1DM or 3 μM of 18, the doxorubicin efflux rate was unaltered in the wild type LCC6 cells. After 3 hrs, the intracellular doxorubicin levels of LCC cells at 1 μM (3122 FU, 71% of doxorubicin remained) and 3 μM (3103 FU, 71% of doxorubicin remained) were very close to that at 0 μM (2601 FU, 60% of doxorubicin remained), respectively (FIG. 3A).

[9] = tested on: LdAG83 promastigotes (wild type); assay: In vitro anti-promastigote activity, LdAG83; format: cell-based, Leishmania donovani; conditions: Leishmania donovani, 72 h, read-out: Anti-promastigotes activity (IC50, μM) LdAG83
Summary of the method: (§4)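 L. donovani (LdAG83 wild type, SSG-resistant Ld39) and L. major Lm50122 promastigotes were seeded at 1×10^5 per well with a concentration series of compound.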

[10] = tested on: Ld39 promastigotes (SSG-resistant); assay: In vitro anti-promastigote activity, Ld39; format: cell-based, Leishmania donovani; conditions: Leishmania donovani, 72 h, read-out: Anti-promastigotes activity (IC50, μM) Ld39
Summary of the method: as §4

[11] = tested on: Raw264.7 cells; assay: Cytotoxicity, mouse macrophage Raw264.7; format: cell-based; conditions: Mus musculus, RAW264.7, 72 h
Summary of the method: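 Raw264.7 (1×10^4 cells/well) and primary PEM cells (2×10^4 cells/well) in supplemented DMEM received graded compound doses and were incubated 72 h at 37 °C, 5% CO2. Percent survivors determined; cytotoxicity IC50 used for therapeutic index against antileishmanial IC50.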

[12] = target: T1, Pgp (LCC6MDR cells) (Homo sapiens, UniProt P08183); assay: Doxorubicin accumulation in LCC6MDR cells
T1 sequence (P08183 whole entry): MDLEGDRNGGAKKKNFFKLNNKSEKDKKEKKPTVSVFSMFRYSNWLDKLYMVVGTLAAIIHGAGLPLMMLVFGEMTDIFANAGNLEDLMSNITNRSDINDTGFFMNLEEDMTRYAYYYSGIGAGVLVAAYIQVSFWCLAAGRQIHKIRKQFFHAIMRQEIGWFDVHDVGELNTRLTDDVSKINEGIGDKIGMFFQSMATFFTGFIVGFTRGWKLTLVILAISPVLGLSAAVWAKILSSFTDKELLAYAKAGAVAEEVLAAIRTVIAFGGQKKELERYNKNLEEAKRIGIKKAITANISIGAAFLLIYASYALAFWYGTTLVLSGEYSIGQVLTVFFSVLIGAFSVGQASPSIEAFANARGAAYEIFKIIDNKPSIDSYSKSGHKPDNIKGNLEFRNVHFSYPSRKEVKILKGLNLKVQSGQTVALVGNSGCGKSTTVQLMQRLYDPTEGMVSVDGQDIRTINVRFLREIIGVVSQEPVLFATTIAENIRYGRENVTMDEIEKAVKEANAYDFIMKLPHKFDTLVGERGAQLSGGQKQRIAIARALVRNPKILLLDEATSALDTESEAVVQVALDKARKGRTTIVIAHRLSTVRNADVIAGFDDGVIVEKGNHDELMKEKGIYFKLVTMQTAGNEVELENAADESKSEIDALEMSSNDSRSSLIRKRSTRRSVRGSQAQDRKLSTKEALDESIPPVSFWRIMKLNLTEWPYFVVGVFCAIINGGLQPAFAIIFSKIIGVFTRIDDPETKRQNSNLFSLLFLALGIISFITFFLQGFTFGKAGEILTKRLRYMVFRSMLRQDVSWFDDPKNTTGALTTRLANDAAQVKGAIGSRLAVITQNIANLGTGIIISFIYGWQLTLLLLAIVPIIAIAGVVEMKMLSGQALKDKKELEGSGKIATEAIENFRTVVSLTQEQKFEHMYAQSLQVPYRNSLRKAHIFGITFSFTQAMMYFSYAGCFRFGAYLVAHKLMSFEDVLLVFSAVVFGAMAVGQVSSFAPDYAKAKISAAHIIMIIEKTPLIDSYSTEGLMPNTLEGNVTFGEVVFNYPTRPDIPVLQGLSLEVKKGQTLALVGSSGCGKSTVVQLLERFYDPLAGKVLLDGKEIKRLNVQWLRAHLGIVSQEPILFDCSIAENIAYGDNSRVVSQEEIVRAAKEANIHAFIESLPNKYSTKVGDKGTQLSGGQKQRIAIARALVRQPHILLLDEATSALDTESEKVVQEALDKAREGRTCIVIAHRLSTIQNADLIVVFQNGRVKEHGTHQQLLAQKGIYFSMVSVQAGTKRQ

[13] = target: T1, Pgp (LCC6MDR cells); assay: Cell proliferation assay: Pgp-modulating activity, reversal of anticancer drug resistance in LCC6MDR cells; conditions: for EC50: EC50 of compounds for reversing anticancer drug resistance (nM), LCC6MDR
[14] = tested on: LCC6 cells; assay: Cell proliferation assay: paclitaxel on parental LCC6 cells without modulator; format: cell-based; conditions: Homo sapiens, LCC-6, no modulator, read-out: IC50 of paclitaxel of LCC6 in the absence of modulators
From the text: Cell Proliferation Assay.

## O=c1cc(-c2ccc(OCCOCCN(CCOCCOc3ccc(-c4cc(=O)c5ccccc5o4)cc3)Cc3ccccc3)cc2)oc2ccccc12 [Compound 18, 1,13-Bis[4′-(4H-chromen-4-on-2-yl)phenyl]-N-(benzyl)-1,4,10,13-tetraoxa-7-azamidecane]
[1]
  IC50 at 72 h: > 63 µM
[2]
  IC50 at 72 h: > 75 µM
[3]
  IC50 at 72 h: 85 µM
[4]
  IC50 at 72 h: > 63 µM
[5]
  Effect on intracellular doxorubicin accumulation in parental LCC6: does not increase
[6]; LCC6, 1 μM
  Intracellular doxorubicin level, influx: 0-1320 FU
[6]; LCC6, 3 μM
  Intracellular doxorubicin level, influx: 0-1035 FU
[7]; 1 or 3 μM, LCC6 and LCC6MDR
  Effect on doxorubicin influx: no effect on doxorubicin influx
[7]; 1 μM
  Intracellular doxorubicin level, influx: 0-803 FU
[7]; 3 μM
  Intracellular doxorubicin level, influx: 0-909 FU
[8]; LCC6, 1 μM
  Doxorubicin remained: 71%
  Intracellular doxorubicin level, efflux: 3122 FU
[8]; LCC6, 3 μM
  Doxorubicin remained: 71%
  Intracellular doxorubicin level, efflux: 3103 FU
[9]
  IC50: 8.4 ± 6.1 µM
[10]
  IC50: 12.3 ± 6 µM
[11]
  IC50: > 79 µM
[12]
  Fold more active than verapamil in inhibiting doxorubicin transport activity of Pgp: roughly 16 fold
[12]; LCC6MDR
  Concentration to restore doxorubicin accumulation in LCC6MDR to levels of parental LCC6: 0.5 µM
[13]; Daunorubicin
  EC50: 95 ± 25 nM
[13]; Doxorubicin
  EC50: 131 ± 13 nM
[13]; Mitoxantrone
  EC50: 90 ± 20 nM
[13]; Paclitaxel
  EC50: 148 ± 18 nM
[13]; Vinblasinte, vinblastine
  EC50: 173 ± 27 nM
[13]; Vincristine
  EC50: 179 ± 32 nM
[13]; IC50 of compounds for L929/EC50 of compounds for lowering paclitaxel drug resistance
  Therapeutic index: 574.3

## CC(=O)O[C@H]1C(=O)[C@@]2(C)[C@H]([C@H](OC(=O)c3ccccc3)[C@]3(O)C[C@H](OC(=O)[C@H](O)[C@@H](NC(=O)c4ccccc4)c4ccccc4)C(C)=C1C3(C)C)[C@]1(OC(C)=O)CO[C@@H]1C[C@@H]2O [paclitaxel]
[14]
  IC50: 1.6 ± 0.3 nM
